# Test results: patent US9078915B2, “Prostate carcinogenesis predictor” (University of South Florida, priority 2007, dated 2015)
# Key:
# LNCaP cells = assay: Cell viability, trypan blue exclusion assay, LNCaP; assay type: cell-based, human
# Procedure: (§1) The siRNAs complexes were made according to the following procedures: 60 μl of siRNAs (10 μM stock solution) were combined with 60 μl of tranfection reagent and incubated at room temperature for 30 minutes to make the siRNA complex. The siRNA complex was then added to twenty four hours post plated cells giving a final concentration of 50 nM of siRNA complex in complete media. The cells were incubated with either siRNA-A, or PKC-ι, PKC-ζ, and PKC-δ siRNA (50 nM for RWPE-1, 100 nM for LNCaP and 150 nM for DU-145 respectively). Following treatments, the cells were washed with phosphate buffered saline (PBS), trypsinized and resuspended in 2-3 ml of PBS.
# (§2) Cell viability was quantified using trypan blue exclusion assay and the numbers of unstained cells were counted as mentioned above. Three independent experiments were carried out for each treatment with controls. Cell viability was determined relative to vehicle control using the mean and SD for each time point. Statistical determination by Student's T test using Minitab program (Minitab Inc. State College, Pa.).
# (§3) Subconfluent RWPE-1 (A), LNCaP (B) and DU-145 (C) cells (2.5×10^5) were treated with PKC-ι siRNA (50 nM for RWPE-1, 100 nM for LNCaP and 150 nM for DU-145) complex from 24-72 h as described in “Materials and Methods.” At the indicated time, the viable cells were counted using trypan blue exclusion assay and a hematocyometry. Three independent experiments were performed and the mean of the viable cells and SD were plotted. After titrating PKC-ι siRNA concentrations from 50-100 nM, we used an optimal concentration of PKC-ι siRNA (50 nM) and control siRNA to suppress PKC-ι expression. […]
# (§4) Cell lysates (50 μg) of an exponentially growing DU-145 cells were immunoprecipitated with either rabbit polyclonal PKC-ι antibody and/or IKKα/β rabbit polyclonal antibody. […] After incubation for 24-72 hours with ICA-1 (0.1 μM-60 μM), both the control cells and ICA-1 treated cells were trypsinized and viable cells were counted using trypan blue exclusion assay and a hematocytometry. […]
# PKC-ι = biological target: T1, PKC-ι (Homo sapiens, UniProt P41743); assay: Kinase assay: phosphorylation of IKKα/β by immunoprecipitated PKC-ι from DU-145 cells; assay type: biochemical; conditions: ICA-1 100 nM, co-immunoprecipitated PKC-ι and IKKα/β
# T1 construct: Cell lysates (50 μg) of an exponentially growing DU-145 cells were immunoprecipitated with either rabbit polyclonal PKC-ι antibody; endogenous in cells; host or cells: DU-145 (whole cell lysate, immunoprecipitate on anti-rabbit IgG-agarose beads)
# T1 sequence (P41743 1-596): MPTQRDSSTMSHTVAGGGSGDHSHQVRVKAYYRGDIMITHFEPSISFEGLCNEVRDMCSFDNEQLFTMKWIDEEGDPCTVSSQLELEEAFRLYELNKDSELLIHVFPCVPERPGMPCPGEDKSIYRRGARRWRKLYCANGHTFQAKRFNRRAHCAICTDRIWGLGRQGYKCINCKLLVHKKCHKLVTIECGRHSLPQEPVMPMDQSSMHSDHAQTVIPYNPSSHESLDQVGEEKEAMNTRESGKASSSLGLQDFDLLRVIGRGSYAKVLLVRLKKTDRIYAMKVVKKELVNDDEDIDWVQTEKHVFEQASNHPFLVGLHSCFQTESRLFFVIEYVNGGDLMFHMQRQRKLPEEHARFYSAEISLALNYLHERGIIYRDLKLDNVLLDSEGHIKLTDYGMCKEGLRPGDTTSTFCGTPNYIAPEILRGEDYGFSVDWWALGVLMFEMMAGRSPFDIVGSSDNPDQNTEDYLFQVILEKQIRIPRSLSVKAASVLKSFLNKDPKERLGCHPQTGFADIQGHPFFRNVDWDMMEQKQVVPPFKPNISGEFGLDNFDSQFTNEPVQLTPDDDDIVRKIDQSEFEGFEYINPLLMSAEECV
# Procedure: DU-145 cells (3.75×10^5) were grown as a monolayer in T75 flasks overnight. Whole cell lysates of (100 μg) were immunoprecipitated as follows: cell lystaes (50 μg) were pre-cleared for 30 min at 4° C. with anti-rabbit IgG-agarose beads (1:1 v/v, 10 μl) (catalog number A8914; Sigma Aldrich) and incubated with 5 μg of PKC-ι rabbit polyclonal antibody and/or IKKα/β rabbit polyclonal antibody (5 μg) overnight at 4° C. and then a further 1 h with anti-rabbit IgG-agarose beads (1:1 v/v, 50 μl). The immunoprecipitated samples were incubated with kinase buffer (50 μl of 3.03 mg/10 ml ATP, 30 mM of Tris p.H 7.4, 50 μl of 5 μg phosphotidylserine) at 30° C. in a water bath for 5 minutes. The reaction was terminated by placing the samples in ice. The PKC-ι inhibitor 1H-imidazole-4-carboxamide, 5-amino-1-[2,3-dihydroxy-4-[(phosphonooxy)methyl]cyclopentyl]-, [1R-(1a, 2b, 3b, 4a)] (ICA-1; 100 nM) was synthesized by Southern Research Institute (Birmingham, Ala.). […]
# as §4
# DU-145 cells = assay: Cell viability, trypan blue exclusion assay, DU-145; assay type: cell-based, human
# Procedure: as §1, §2, §3, §4
structure (smiles),measurement,setting,value
"NC(=O)c1ncn(C2CC(COP(=O)(O)O)C(O)C2O)c1N (stereo not drawn) [ICA-1, 1H-imidazole-4-carboxamide, 5-amino-1-[2,3-dihydroxy-4-[(phosphonooxy)methyl]cyclopentyl]-, [1R-(1a, 2b, 3b, 4a)]]",inhibition of cell proliferation,"LNCaP cells; ICA-1 0.1 μM-60 μM, 24-72 hours",does not significantly (p>0.05 for both cell lines) inhibit
same,cell numbers at low concentration,LNCaP cells; ICA-1 0.1-0.5 μM,increase in cell numbers
same,cell growth at high concentration,LNCaP cells; ICA-1 10-60 μM,inhibition of cell growth
same,phosphorylation of IKKα/β (Ser176/180) by PKC-ι,PKC-ι,inhibited
same,inhibition of cell proliferation,"DU-145 cells; DU-145, ICA-1 0.1 μM-60 μM, 24-72 hours",does not significantly (p>0.05 for both cell lines) inhibit
same,cell numbers at low concentration,"DU-145 cells; DU-145, ICA-1 0.1-0.5 μM",increase in cell numbers
same,cell growth at high concentration,"DU-145 cells; DU-145, ICA-1 10-60 μM",inhibition of cell growth
